Measurements published in patent publication US20170037014A1, “FUNGICIDAL PYRAZOLES” (E. I. DU PONT DE NEMOURS AND COMPANY, priority 2014, published 2017).
Marks after values point to notes of the source that are not given here. Each block holds one compound with its values, some of them ahead of it.

Columns and labels:
[1] = system: Puccinia recondita f sp. tritici; assay: Test A: wheat leaf rust, preventive spray on wheat seedlings, visual disease rating; format: in vivo; details: 100 = 100% disease control, 0 = no control
From the text: General protocol for preparing test suspensions for Tests A-D: the test compounds were first dissolved in acetone in an amount equal to 3% of the final volume and then suspended at the desired concentration (in ppm) in acetone and purified water (50/50 mix by volume) containing 250 ppm of the surfactant Trem® 014 (polyhydric alcohol esters). The resulting test suspensions were then used in Tests A-D. The test suspension was sprayed to the point of run-off on wheat seedlings. The following day the seedlings were inoculated with a spore suspension of Puccinia recondita f sp. tritici (the causal agent of wheat leaf rust) and incubated in a saturated atmosphere at 20° C. for 24 h, and then moved to a growth chamber at 20° C. for 7 days, after which time visual disease ratings were made. In the Table, a rating of 100 indicates 100% disease control and a rating of 0 indicates no disease control (relative to the controls). A dash (−) indicates no test results. All results are for 250 ppm except where followed by an “*” which indicates 50 ppm, and where followed by an “**” which indicates 10 ppm

Septoria tritici = assay: Test B: wheat leaf blotch, preventive spray on wheat seedlings, visual disease rating; format: in vivo; details: 100 = 100% disease control, 0 = no control
From the text: General protocol for preparing test suspensions for Tests A-D: the test compounds were first dissolved in acetone in an amount equal to 3% of the final volume and then suspended at the desired concentration (in ppm) in acetone and purified water (50/50 mix by volume) containing 250 ppm of the surfactant Trem® 014 (polyhydric alcohol esters). The resulting test suspensions were then used in Tests A-D. The test suspension was sprayed to the point of run-off on wheat seedlings. The following day the seedlings were inoculated with a spore suspension of Septoria tritici (the causal agent of wheat leaf blotch) and incubated in a saturated atmosphere at 24° C. for 48 h, and then moved to a growth chamber at 20° C. for 19 days, after which time visual disease ratings were made. In the Table, a rating of 100 indicates 100% disease control and a rating of 0 indicates no disease control (relative to the controls). A dash (−) indicates no test results. All results are for 250 ppm except where followed by an “*” which indicates 50 ppm, and where followed by an “**” which indicates 10 ppm

[2] = system: Blumeria graminis f sp. tritici; assay: Test D: wheat powdery mildew, preventive spray on wheat seedlings, visual disease rating; format: in vivo; details: 100 = 100% disease control, 0 = no control
From the text: General protocol for preparing test suspensions for Tests A-D: the test compounds were first dissolved in acetone in an amount equal to 3% of the final volume and then suspended at the desired concentration (in ppm) in acetone and purified water (50/50 mix by volume) containing 250 ppm of the surfactant Trem® 014 (polyhydric alcohol esters). The resulting test suspensions were then used in Tests A-D. The test suspension was sprayed to the point of run-off on wheat seedlings. The following day the seedlings were inoculated with a spore dust of Blumeria graminis f sp. tritici, (also known as Erysiphe graminis f. sp. tritici, the causal agent of wheat powdery mildew) and incubated in a growth chamber at 20° C. for 8 days, after which time visual disease ratings were made. In the Table, a rating of 100 indicates 100% disease control and a rating of 0 indicates no disease control (relative to the controls). A dash (−) indicates no test results. All results are for 250 ppm except where followed by an “*” which indicates 50 ppm, and where followed by an “**” which indicates 10 ppm

Botrytis cinerea = assay: Test C: tomato Botrytis, preventive spray on tomato seedlings, visual disease rating; format: in vivo; details: 100 = 100% disease control, 0 = no control
From the text: General protocol for preparing test suspensions for Tests A-D: the test compounds were first dissolved in acetone in an amount equal to 3% of the final volume and then suspended at the desired concentration (in ppm) in acetone and purified water (50/50 mix by volume) containing 250 ppm of the surfactant Trem® 014 (polyhydric alcohol esters). The resulting test suspensions were then used in Tests A-D. The test suspension was sprayed to the point of run-off on tomato seedlings. The following day the seedlings were inoculated with a spore suspension of Botrytis cinerea (the causal agent of tomato Botrytis) and incubated in a saturated atmosphere at 20° C. for 48 h, and then moved to a growth chamber at 24° C. for 3 days, after which time visual disease ratings were made. In the Table, a rating of 100 indicates 100% disease control and a rating of 0 indicates no disease control (relative to the controls). A dash (−) indicates no test results. All results are for 250 ppm except where followed by an “*” which indicates 50 ppm, and where followed by an “**” which indicates 10 ppm

[3] = Zymoseptoria tritici, 50 ppm (*)

SMILES: CCC(C)c1c(Nc2c(F)cc(C#N)cc2F)c(C)nn1C (centres unmarked) [Compound 17]
- Test A disease control rating ([1]; 50 ppm (*)): 0* %
- Test B disease control rating (Septoria tritici; 50 ppm (*)): 35* %
- Test D disease control rating ([2]; 50 ppm (*)): 69* %

- melting point: 146 to 149 °C
SMILES: Cc1nn(C)c(C2CCCCC2)c1C(O)c1ccc(F)cc1Cl (stereo not drawn) [Compound 8, α-(2-chloro-4-fluorophenyl)-5-cyclohexyl-1,3-dimethyl-1H-pyrazole-4-methanol]
- pest or weed control at 250 ppm ([1]; 250 ppm): 99%
- pest or weed control at 250 ppm (Septoria tritici; Zymoseptoria tritici, 250 ppm): 99%
- pest or weed control at 250 ppm (Botrytis cinerea; Botrytis cinerea, 250 ppm): 86%
- pest or weed control at 250 ppm ([2]; Blumeria graminis, 250 ppm): 93%

SMILES: CCC(C)c1c(Nc2ccc(F)cc2Cl)c(C)nn1C (centres unmarked) [Compound 18]
- Test A disease control rating ([1]; 50 ppm (*)): 0* %
- Test B disease control rating (Septoria tritici; 50 ppm (*)): 0* %
- Test D disease control rating ([2]; 50 ppm (*)): 0* %

SMILES: CCC(C)c1c(Oc2ccc(F)cc2Cl)c(C)nn1C (centres unmarked) [Compound 7]
- Test A disease control rating ([1]; 250 ppm): 0%
- Test B disease control rating (Septoria tritici; 250 ppm): 0%
- Test C disease control rating (Botrytis cinerea; 250 ppm): 0%
- Test D disease control rating ([2]; 250 ppm): 0%

- melting point: 118 to 121 °C
SMILES: CCC(C)c1c(C(O)c2ccc(F)cc2F)c(C)nn1C (stereo not drawn) [Compound 10, α-(2,4-difluorophenyl)-1,3-dimethyl-5-(1-methylpropyl)-1H-pyrazole-4-methanol]
- pest or weed control at 250 ppm ([1]; 250 ppm): 100%
- pest or weed control at 250 ppm (Septoria tritici; Zymoseptoria tritici, 250 ppm): 99%
- pest or weed control at 250 ppm (Botrytis cinerea; Botrytis cinerea, 250 ppm): 99%
- pest or weed control at 250 ppm ([2]; Blumeria graminis, 250 ppm): 100%

SMILES: CC=C(C)c1c(Oc2ccc(F)cc2Cl)c(C)nn1C [Compound 4]
- Test A disease control rating ([1]; 250 ppm): 0%
- Test B disease control rating (Septoria tritici; 250 ppm): 0%
- Test C disease control rating (Botrytis cinerea; 250 ppm): 39%
- Test D disease control rating ([2]; 250 ppm): 56%

SMILES: CCC(C)c1c(Nc2c(F)cc([N+](=O)[O-])cc2F)c(C)nn1C (centres unmarked) [Compound 16]
- Test A disease control rating ([1]; 50 ppm (*)): 0* %
- Test B disease control rating (Septoria tritici; 50 ppm (*)): 22* %
- Test D disease control rating ([2]; 50 ppm (*)): 0* %

- melting point: 129 to 133 °C
SMILES: Cc1nn(C)c(CC(C)C)c1C(O)c1ccc(F)cc1F (stereo not drawn) [Compound 14, α-(2,4-difluorophenyl)-1,3-dimethyl-5-(2-methylpropyl)-1H-pyrazole-4-methanol]
- pest or weed control at 50 ppm ([1]; 50 ppm (*)): 74%
- pest or weed control at 50 ppm (Septoria tritici; [3]): 99%
- pest or weed control at 50 ppm (Botrytis cinerea; Botrytis cinerea, 50 ppm (*)): 16%
- pest or weed control at 50 ppm ([2]; Blumeria graminis, 50 ppm (*)): 98%

SMILES: CC=C(C)c1c(C(O)c2ccc(F)cc2Cl)c(Br)nn1C (centres unmarked) [Compound 27]
- Test A disease control rating ([1]; 50 ppm (*)): 99* %
- Test B disease control rating (Septoria tritici; 50 ppm (*)): 100* %
- Test C disease control rating (Botrytis cinerea; 50 ppm (*)): 58* %
- Test D disease control rating ([2]; 250 ppm): 86%

SMILES: Cn1nc(Br)c(C(O)c2ccc(F)cc2Cl)c1C1=CCCCC1 (centres unmarked) [Compound 28]
- Test A disease control rating ([1]; 50 ppm (*)): 80* %
- Test B disease control rating (Septoria tritici; 50 ppm (*)): 87* %
- Test C disease control rating (Botrytis cinerea; 50 ppm (*)): 0* %
- Test D disease control rating ([2]; 50 ppm (*)): 64* %

SMILES: Cc1nn(C)c(C2CCCC2)c1C(O)c1ccc(F)cc1F (centres unmarked) [Compound 26]
- Test A disease control rating ([1]; 50 ppm (*)): 74* %
- Test B disease control rating (Septoria tritici; 50 ppm (*)): 97* %
- Test C disease control rating (Botrytis cinerea; 50 ppm (*)): 26* %
- Test D disease control rating ([2]; 50 ppm (*)): 90* %

- melting point: 114 to 117 °C
SMILES: CCC(C)c1c(C(O)c2c(F)cc(F)cc2F)c(C)nn1C (stereo not drawn) [Compound 23, 1,3-dimethyl-5-(1-methylpropyl)-α-(2,4,6-trifluorophenyl)-1H-pyrazole-4-methanol]
- pest or weed control at 50 ppm ([1]; 50 ppm (*)): 97%
- pest or weed control at 50 ppm (Septoria tritici; [3]): 94%
- pest or weed control at 50 ppm (Botrytis cinerea; Botrytis cinerea, 50 ppm (*)): 31%
- pest or weed control at 50 ppm ([2]; Blumeria graminis, 50 ppm (*)): 96%

- melting point: 159 to 162 °C
SMILES: Cc1nn(C)c(CC(C)C)c1C(O)c1ccc(F)cc1Cl (stereo not drawn) [Compound 3, α-(2-chloro-4-fluorophenyl)-1,3-dimethyl-5-(2-methylpropyl)-1H-pyrazole-4-methanol]
- pest or weed control at 10 ppm ([1]; 10 ppm (**)): 89%
- pest or weed control at 10 ppm (Septoria tritici; Zymoseptoria tritici, 10 ppm (**)): 100%
- pest or weed control at 10 ppm (Botrytis cinerea; Botrytis cinerea, 10 ppm (**)): 0%
- pest or weed control at 10 ppm ([2]; Blumeria graminis, 10 ppm (**)): 71%

SMILES: Cc1nn(C)c(C(C)C)c1C(O)c1ccc(F)cc1F (centres unmarked) [Compound 2]
- Test A disease control rating ([1]; 50 ppm (*)): 57* %
- Test B disease control rating (Septoria tritici; 50 ppm (*)): 99* %
- Test C disease control rating (Botrytis cinerea; 50 ppm (*)): 0* %
- Test D disease control rating ([2]; 50 ppm (*)): 99* %

- melting point: 128 to 131 °C
SMILES: CCC(C)c1c(C(O)c2ccc(F)cc2Cl)c(C)nn1C (stereo not drawn) [Compound 9, α-(2-chloro-4-fluorophenyl)-1,3-dimethyl-5-(1-methylpropyl)-1H-pyrazole-4-methanol]
- pest or weed control at 50 ppm ([1]; 50 ppm (*)): 100%
- pest or weed control at 50 ppm (Septoria tritici; [3]): 99%
- pest or weed control at 50 ppm (Botrytis cinerea; Botrytis cinerea, 50 ppm (*)): 99%
- pest or weed control at 50 ppm ([2]; Blumeria graminis, 50 ppm (*)): 99%

- melting point: 161 to 164 °C
SMILES: Cc1nn(C)c(C2CCCCC2)c1C(O)c1ccc(F)cc1F (stereo not drawn) [Compound 11, 5-cyclohexyl-α-(2,4-difluorophenyl)-1,3-dimethyl-1H-pyrazole-4-methanol]
- pest or weed control at 250 ppm ([1]; 250 ppm): 99%
- pest or weed control at 250 ppm (Septoria tritici; Zymoseptoria tritici, 250 ppm): 100%
- pest or weed control at 250 ppm (Botrytis cinerea; Botrytis cinerea, 250 ppm): 99%
- pest or weed control at 250 ppm ([2]; Blumeria graminis, 250 ppm): 97%

- melting point: 75 to 79 °C
SMILES: Cc1nn(C)c(C2CCCCC2)c1Oc1ccc(F)cc1Cl [Compound 12, 4-(2-chloro-4-fluorophenoxy)-5-cyclohexyl-1,3-dimethyl-1H-pyrazole]
- pest or weed control at 250 ppm ([1]; 250 ppm): 79%
- pest or weed control at 250 ppm (Septoria tritici; Zymoseptoria tritici, 250 ppm): 19%
- pest or weed control at 250 ppm (Botrytis cinerea; Botrytis cinerea, 250 ppm): 9%
- pest or weed control at 250 ppm ([2]; Blumeria graminis, 250 ppm): 90%

SMILES: Cc1nn(C)c(C2CCCC2)c1C(O)c1ccc(F)cc1Cl (centres unmarked) [Compound 19]
- Test A disease control rating ([1]; 50 ppm (*)): 89* %
- Test B disease control rating (Septoria tritici; 50 ppm (*)): 100* %
- Test C disease control rating (Botrytis cinerea; 50 ppm (*)): 0* %
- Test D disease control rating ([2]; 50 ppm (*)): 89* %

SMILES: Cc1nn(C)c(C2=CCCCC2)c1Oc1ccc(F)cc1Cl [Compound 13, 4-(2-chloro-4-fluorophenoxy)-5-(1-cyclohexen-1-yl)-1,3-dimethyl-1H-pyrazole]
- pest or weed control at 250 ppm ([1]; 250 ppm): 9%
- pest or weed control at 250 ppm (Septoria tritici; Zymoseptoria tritici, 250 ppm): 0%
- pest or weed control at 250 ppm (Botrytis cinerea; Botrytis cinerea, 250 ppm): 0%
- pest or weed control at 250 ppm ([2]; Blumeria graminis, 250 ppm): 67%

SMILES: CCC(C)c1c(Nc2ccc(F)c(F)c2)c(C)nn1C (centres unmarked) [Compound 20]
- Test A disease control rating ([1]; 50 ppm (*)): 0* %
- Test B disease control rating (Septoria tritici; 50 ppm (*)): 0* %
- Test D disease control rating ([2]; 50 ppm (*)): 26* %

SMILES: C=C(C)Cc1c(C(O)c2ccc(F)cc2Cl)c(C)nn1C (centres unmarked) [Compound 5]
- Test A disease control rating ([1]; 50 ppm (*)): 68* %
- Test B disease control rating (Septoria tritici; 50 ppm (*)): 99* %
- Test C disease control rating (Botrytis cinerea; 50 ppm (*)): 0* %
- Test D disease control rating ([2]; 50 ppm (*)): 76* %

SMILES: CCC(C)c1c(Nc2c(F)cc(F)cc2F)c(C)nn1C (centres unmarked) [Compound 15]
- Test A disease control rating ([1]; 50 ppm (*)): 0* %
- Test B disease control rating (Septoria tritici; 50 ppm (*)): 1* %
- Test D disease control rating ([2]; 50 ppm (*)): 0* %

SMILES: CCC(C)c1c(C(O)c2c(F)cccc2F)c(C)nn1C (centres unmarked) [Compound 25]
- Test A disease control rating ([1]; 50 ppm (*)): 74* %
- Test B disease control rating (Septoria tritici; 50 ppm (*)): 63* %
- Test C disease control rating (Botrytis cinerea; 50 ppm (*)): 17* %
- Test D disease control rating ([2]; 50 ppm (*)): 86* %
